Measurements published in ChEMBL document CHEMBL1212839 (J Med Chem, 2010).

What was measured:
Substance-P receptor = Substance-P receptor (Homo sapiens, UniProt P25103); assay: Displacement of [3H]substance P frome human NK1 receptor
Mu-type opioid receptor [1] = target: T1, Mu-type opioid receptor (Rattus norvegicus, UniProt P33535); assay: Displacement of [3H]DPDPE from rat mu opioid receptor
[2] = target: T2, Delta-type opioid receptor (Homo sapiens, UniProt P41143); assay: Displacement of [3H]DPDPE from human delta opioid receptor
[3] = target: T2, Delta-type opioid receptor; assay: Agonist activity at human opioid delta receptor expressed in mouse HN9.10 cells assessed as [35S]GTPgammaS binding; format: functional, cell-based
Mu-type opioid receptor [4] = target: T1, Mu-type opioid receptor; assay: Agonist activity at rat mu opioid receptor expressed in mouse HN9.10 cells assessed as [35S]GTPgammaS binding; format: functional, cell-based
[5] = target: Mu-type opioid receptor (Cavia porcellus) (UniProt P97266); conditions: Ileum, 1 uM
[6] = target: Mu-type opioid receptor (Rattus norvegicus) (UniProt P33535); assay: Agonist activity at rat mu opioid receptor expressed in mouse HN9.10 cells assessed as [35S]GTPgammaS binding relative to control; format: functional, cell-based
[7] = target: T3, Delta-type opioid receptor (Mus musculus, UniProt P32300)
[8] = target: Substance-P receptor (Cavia porcellus) (UniProt P30547); conditions: Ileum
[9] = target: T3, Delta-type opioid receptor; remark: listed apart in the source

T1 sequence (P33535 whole entry): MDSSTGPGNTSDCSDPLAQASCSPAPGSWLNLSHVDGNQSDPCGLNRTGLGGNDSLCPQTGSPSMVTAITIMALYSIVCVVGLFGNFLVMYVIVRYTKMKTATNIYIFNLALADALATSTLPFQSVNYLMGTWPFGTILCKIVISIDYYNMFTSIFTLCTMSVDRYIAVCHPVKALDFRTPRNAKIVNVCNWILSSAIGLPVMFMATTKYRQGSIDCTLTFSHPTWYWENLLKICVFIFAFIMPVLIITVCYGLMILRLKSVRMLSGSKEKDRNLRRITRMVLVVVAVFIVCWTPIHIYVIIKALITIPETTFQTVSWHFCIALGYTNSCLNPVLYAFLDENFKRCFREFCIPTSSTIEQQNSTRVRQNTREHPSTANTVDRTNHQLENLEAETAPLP
Sequence of Mu-type opioid receptor (Cavia porcellus) (P97266 whole entry): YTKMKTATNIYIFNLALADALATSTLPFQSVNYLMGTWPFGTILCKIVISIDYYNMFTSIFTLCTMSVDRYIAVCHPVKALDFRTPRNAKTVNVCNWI
Sequence of Substance-P receptor (P25103 whole entry): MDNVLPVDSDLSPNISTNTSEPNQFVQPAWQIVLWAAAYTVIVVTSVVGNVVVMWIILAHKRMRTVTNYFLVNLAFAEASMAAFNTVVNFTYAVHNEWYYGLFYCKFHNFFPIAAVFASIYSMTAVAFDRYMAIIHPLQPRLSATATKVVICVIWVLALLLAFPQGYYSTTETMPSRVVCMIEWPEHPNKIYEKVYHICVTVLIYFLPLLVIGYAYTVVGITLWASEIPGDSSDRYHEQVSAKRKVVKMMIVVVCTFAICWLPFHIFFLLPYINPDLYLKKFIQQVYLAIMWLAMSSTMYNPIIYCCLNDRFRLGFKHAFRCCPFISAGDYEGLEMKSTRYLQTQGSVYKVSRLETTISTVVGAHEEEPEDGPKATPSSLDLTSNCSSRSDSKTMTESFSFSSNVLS
T2 sequence (P41143 whole entry): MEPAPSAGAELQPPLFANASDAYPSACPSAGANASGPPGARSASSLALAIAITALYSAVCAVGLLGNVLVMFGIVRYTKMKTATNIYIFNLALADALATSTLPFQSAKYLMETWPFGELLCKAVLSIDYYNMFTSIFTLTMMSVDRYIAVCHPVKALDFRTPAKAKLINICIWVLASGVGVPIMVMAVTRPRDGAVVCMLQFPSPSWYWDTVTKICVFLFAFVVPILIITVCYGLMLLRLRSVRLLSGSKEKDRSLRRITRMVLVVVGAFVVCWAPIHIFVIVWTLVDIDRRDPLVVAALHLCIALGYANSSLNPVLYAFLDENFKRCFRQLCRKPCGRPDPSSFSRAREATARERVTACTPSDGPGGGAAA
Sequence of Mu-type opioid receptor (Rattus norvegicus) (P33535 whole entry): as the sequence (P33535 whole entry) above
Sequence of Substance-P receptor (Cavia porcellus) (P30547 whole entry): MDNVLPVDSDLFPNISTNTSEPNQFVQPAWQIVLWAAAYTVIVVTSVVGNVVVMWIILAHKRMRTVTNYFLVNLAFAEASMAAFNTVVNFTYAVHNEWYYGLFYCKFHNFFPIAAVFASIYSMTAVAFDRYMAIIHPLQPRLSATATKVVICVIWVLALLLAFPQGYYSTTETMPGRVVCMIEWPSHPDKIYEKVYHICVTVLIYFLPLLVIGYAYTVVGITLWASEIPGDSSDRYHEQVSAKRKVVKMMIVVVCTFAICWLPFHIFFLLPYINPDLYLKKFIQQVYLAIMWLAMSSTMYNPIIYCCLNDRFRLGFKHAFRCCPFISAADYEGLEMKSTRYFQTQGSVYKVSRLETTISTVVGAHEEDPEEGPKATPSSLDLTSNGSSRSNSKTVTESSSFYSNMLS
T3 sequence (P32300 whole entry): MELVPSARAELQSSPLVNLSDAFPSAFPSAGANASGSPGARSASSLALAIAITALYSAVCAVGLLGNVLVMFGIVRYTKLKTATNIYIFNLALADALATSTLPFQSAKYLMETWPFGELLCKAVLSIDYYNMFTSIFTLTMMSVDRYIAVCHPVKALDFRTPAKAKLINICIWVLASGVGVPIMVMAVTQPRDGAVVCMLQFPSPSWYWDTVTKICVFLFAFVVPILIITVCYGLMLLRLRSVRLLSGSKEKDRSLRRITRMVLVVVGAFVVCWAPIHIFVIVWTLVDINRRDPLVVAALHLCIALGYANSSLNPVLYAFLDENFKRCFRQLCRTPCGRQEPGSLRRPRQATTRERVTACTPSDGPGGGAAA

With `CC(C)C[C@H](NC(=O)[C@@H]1CCCN1C(=O)[C@H]1NC(=O)[C@H](Cc2ccccc2)NC(=O)CNC(=O)[C@H](NC(=O)[C@@H](N)Cc2ccc(O)cc2)C(C)(C)SSC1(C)C)C(=O)N[C@@H](Cc1c[nH]c2ccccc12)C(=O)NCc1cc(C(F)(F)F)cc(C(F)(F)F)c1` the IC50 (Substance-P receptor) was 0.0123 nM, the IC50 (Mu-type opioid receptor [1]) was 4370 nM and the IC50 [2] was 3.63 nM.

Compound `CC(C)C[C@H](NC(=O)[C@@H]1CCCN1C(=O)[C@H]1NC(=O)[C@H](Cc2ccccc2)NC(=O)CNC(=O)[C@@H](NC(=O)[C@@H](N)Cc2ccc(O)cc2)C(C)(C)SSC1(C)C)C(=O)N[C@@H](Cc1c[nH]c2ccccc12)C(=O)NCc1cc(C(F)(F)F)cc(C(F)(F)F)c1` has an IC50 (Substance-P receptor) of 0.417 nM, a Ki (Substance-P receptor) of 0.18 nM and an IC50 (Mu-type opioid receptor [1]) of 4170 nM. The Ki (Mu-type opioid receptor [1]) was 2100 nM, the IC50 [2] was 72.4 nM and the Ki [2] was 38 nM. It also gave an EC50 [3] of 120 nM, an EC50 (Mu-type opioid receptor [4]) of 130 nM and an inhibition [5] of 0.6%.

Work on `CCCC[C@@H]1NC(=O)[C@H](Cc2ccccc2)NC(=O)CNC(=O)[C@@H](NC(=O)[C@@H](N)Cc2ccc(O)cc2)C(C)(C)SSC(C)(C)[C@H](C(=O)N2CCC[C@H]2C(=O)N[C@@H](CC(C)C)C(=O)N[C@@H](Cc2c[nH]c3ccccc23)C(=O)NCc2cc(C(F)(F)F)cc(C(F)(F)F)c2)NC(=O)[C@@H]2CCCN2C1=O` yielded a Ki (Substance-P receptor) of 59 nM, a pIC50 (Substance-P receptor) of 6.87 and a Ki (Mu-type opioid receptor [1]) of 2000 nM. For the same compound, the pIC50 (Mu-type opioid receptor [1]) was 5.43, the Ki [2] was 150 nM and the pIC50 [2] was 6.5. It also gave an EC50 [3] of 530 nM, an EC50 (Mu-type opioid receptor [4]) of 2900 nM and a pEC50 (Mu-type opioid receptor [4]) of 5.67. The Emax [6] was 15%, the IC50 [7] was 250 nM and the Ke [8] was 72 nM. For the same compound, the inhibition [5] was 6%.

`CC(C)C[C@H](NC(=O)[C@@H]1CCCN1C(=O)[C@@H]1NC(=O)[C@H](Cc2ccccc2)NC(=O)CNC(=O)[C@@H](NC(=O)[C@@H](N)Cc2ccc(O)cc2)C(C)(C)SSC1(C)C)C(=O)N[C@@H](Cc1c[nH]c2ccccc12)C(=O)NCc1cc(C(F)(F)F)cc(C(F)(F)F)c1` gave an inhibition [5] of 26%.

For `CCCC[C@@H]1NC(=O)[C@H](Cc2ccccc2)NC(=O)CNC(=O)[C@@H](NC(=O)[C@@H](N)Cc2ccc(O)cc2)C(C)(C)SSC(C)(C)[C@@H](C(=O)N2CCC[C@H]2C(=O)N[C@@H](CC(C)C)C(=O)N[C@@H](Cc2c[nH]c3ccccc23)C(=O)NCc2cc(C(F)(F)F)cc(C(F)(F)F)c2)NC(=O)[C@@H]2CCCN2C1=O`, the IC50 (Substance-P receptor) was 4.27 nM, the Ki (Substance-P receptor) was 1.9 nM and the IC50 (Mu-type opioid receptor [1]) was 2040 nM. The Ki (Mu-type opioid receptor [1]) was 1000 nM, the IC50 [2] was 1380 nM and the Ki [2] was 720 nM. It also gave an EC50 [3] of 120 nM, an EC50 (Mu-type opioid receptor [4]) of 140 nM and an Emax [6] of 26%. The IC50 [9] was 1100 nM, the Ke [8] was 66 nM and the inhibition [5] was 7%.
